“And” between values parts separate entries of the source, which are not always exact repeats. Equal values may be shown once. Blank lines part the entries; values can stand above or below the compound they belong to.
Assays:
[1] = target: D2 dopamine receptor (Rattus norvegicus (Rat), UniProt P61169); assay: Affinity on dopamine D2 receptor, competition with [3H] Spiperone; format: binding; design: D2 receptor inhibition ratio (%): concentration or dose not given beside the values
Protocol: (§1) (1). Determination of the Affinity of Hexahydrodibenzo[a,g]Quinolizine Compound of General Formula I and Derivatives Thereof on Dopamine D1, Dopamine D2, 5-HT1A, and 5-HT2A Receptor.
(§2) 1) The Experimental Method
(§3) Different concentrations (10^−5 M-10^−11 M) of the compound of the invention and corresponding isotope receptor ligand as well as receptor protein were loaded into the reaction tube and incubated in 30° C. water bath for 60 minutes. The reaction was terminated in a refrigerator. The reaction mixture was put in a Millipore filter (millipore) cell sample collector, filtered through suction filtration using GF/C glass fiber filter paper, and dried. The resulting sample was placed into 0.5 mL tube. 500 μL liquid scintillation fluid was added and intensity of radioactivity was determined by counting.
(§4) (1) Construction of receptor and materials for cell culture: Escherichia coli. DH5α strain; insect virus transfer vector pVL1393 plasmid; BaculoGold linear Chinese baculovirus DNA, purchased from ParMingen company; mkD1RcDNA; rD2R cDNA; various restriction endonucleases, TaqDNA polymerase, T4 ligase, etc., LB medium; insect cell culture TNM-FH.
(§5) (2) the Experimental Materials for Receptor Binding
(§6) Firstly, the above […] are dissolved in DMSO and then diluted with double distilled water to the appropriate concentration (10^−5 M-10^−11 M).
(§7) (+) Butaclamo purchased from RBI company, GF/C glass fiber filter paper purchased from Whatman Co., scintillation fluid (dopamine D1, D2 receptors)/liposoluble scintillation fluid (5-HT1A, 5-HT2A receptor), Beckman LS-6500 multi-function liquid scintillation counter.

[2] = target: dopamine D1 receptor (Macaca mulatta (Rhesus macaque), UniProt O77680); assay: Affinity on dopamine D1 receptor, competition with [3H] SCH23390; format: binding; design: D1 receptor inhibition ratio (%): concentration or dose not given beside the values; conditions: for affinity on dopamine D1 receptor (in words): summary of the tables
dopamine D1 receptor, sequence (O77680 whole entry): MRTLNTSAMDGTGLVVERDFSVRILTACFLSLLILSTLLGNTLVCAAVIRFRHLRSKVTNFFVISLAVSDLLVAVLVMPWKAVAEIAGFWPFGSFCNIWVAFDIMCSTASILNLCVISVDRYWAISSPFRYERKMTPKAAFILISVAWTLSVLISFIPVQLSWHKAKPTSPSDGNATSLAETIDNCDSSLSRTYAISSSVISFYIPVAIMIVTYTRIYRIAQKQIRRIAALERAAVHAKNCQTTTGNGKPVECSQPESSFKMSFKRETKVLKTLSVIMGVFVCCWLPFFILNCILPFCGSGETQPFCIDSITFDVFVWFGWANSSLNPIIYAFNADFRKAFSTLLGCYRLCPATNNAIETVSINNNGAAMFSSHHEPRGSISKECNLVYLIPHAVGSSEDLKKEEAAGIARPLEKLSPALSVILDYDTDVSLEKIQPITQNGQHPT
Protocol: as §1, §2, §3, §4, §5, §6, §7

[3] = In vivo pharmacokinetic experiment of rats (gavage and intravenous); design: species or system SD rats; conditions: rat
Protocol: Pharmacokinetic properties of Compound DC037029 in rats were preliminarily studied in this experiment. After the tested compound was delivered to rats by intravenous administration and intragastric administration, respectively, the whole blood samples were collected at different time point and the plasma was separated. The concentration of compound in plasma was determined by liquid chromatography-tandem mass spectrometry.
Six healthy male SD rats with the weight of 200-220 g were randomly divided into 2 groups, each of which has three rats. The rats in each group were administrated with the tested compound by gavage or intravenous injection, respectively.
The compound was dissolved in 10% DMSO/10% Tween/[…].
The rats are fasted for 12 h and can drink water ad libitum before test. 2 h after dosing, the rats ate all together. The time point for collecting blood samples and the sample processing are listed as follows.
Intragastric administration time: 0.25, 0.5, 1.0, 2.0, 3.0, 5.0, 7.0, 9.0 and 24 h after administration.
Intravenous administration time: 5 min, 0.25, 0.5, 1.0, 2.0, 3.0, 5.0, 7.0, 9.0 and 24 h after administration. At above time point, 0.3 ml venous blood was taken from retrobulbar venous plexus of the rat and loaded into heparinization tube. After centrifuged at 1000 rpm for 5 min, the plasma was separated and frozen at −20° C. in a refrigerator.

[4] = gavage 20 mg/kg, individual animals
[5] = intravenous injection 10 mg/kg, average
[6] = intravenous injection 10 mg/kg, individual animals

D2 dopamine receptor, sequence (P61169 whole entry): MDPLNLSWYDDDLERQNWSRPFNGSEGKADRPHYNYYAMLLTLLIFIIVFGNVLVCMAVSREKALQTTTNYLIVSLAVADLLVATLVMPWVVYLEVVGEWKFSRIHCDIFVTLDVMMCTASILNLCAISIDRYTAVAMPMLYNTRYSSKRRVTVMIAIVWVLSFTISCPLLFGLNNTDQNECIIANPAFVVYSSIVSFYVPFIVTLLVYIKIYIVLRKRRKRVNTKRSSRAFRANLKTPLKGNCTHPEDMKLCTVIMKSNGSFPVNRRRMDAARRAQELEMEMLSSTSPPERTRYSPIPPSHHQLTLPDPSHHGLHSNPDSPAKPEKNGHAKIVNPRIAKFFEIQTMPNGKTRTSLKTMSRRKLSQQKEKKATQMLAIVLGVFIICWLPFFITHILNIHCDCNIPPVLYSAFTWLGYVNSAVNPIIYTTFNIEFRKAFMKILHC

SMILES: COc1cc2c(c(OC)c1OC)CN1CCc3cc4c(cc3[C@@H]1C2)OCO4 [DC037016, S-(−)-2,3-methylenedioxy-9,10,11-bimethoxy-5,8,13,13a-tetra-hydro-6H-dibenzo[a,g]quinolizine]
D2 receptor inhibition ratio (%) [1]: 66.2%
D1 receptor inhibition ratio (%) [2]: 95.5%
IC50 [2]: 763 nM
Ki [2]: 377 nM

SMILES: COc1cc2c(cc1O)[C@@H]1Cc3cc4c(cc3CN1CC2)OCO4 [DC037029, S-(−)-2-hydroxy-3-methoxy-10,12-methylenedioxy-5,8,13,13a-tetrahydro-6H-dibenzo[a,g]quinolizine]
F (absolute bioavailability) ([3]; gavage 20 mg/kg): 34.2%
Plasma concentration ([3]; gavage 20 mg/kg, 0.25 h, average): 392 ng/mL
Plasma concentration ([3]; gavage 20 mg/kg, 0.25 h, individual animals): 268 ng/mL and 416 ng/mL and 493 ng/mL
Plasma concentration ([3]; gavage 20 mg/kg, 0.5 h, average): 445 ng/mL
Plasma concentration ([3]; gavage 20 mg/kg, 0.5 h, individual animals): 289 ng/mL and 494 ng/mL and 553 ng/mL
Plasma concentration ([3]; gavage 20 mg/kg, 1.0 h, average): 420 ng/mL
Plasma concentration ([3]; gavage 20 mg/kg, 1.0 h, individual animals): 230 ng/mL and 455 ng/mL and 575 ng/mL
Plasma concentration ([3]; gavage 20 mg/kg, 2.0 h, average): 345 ng/mL
Plasma concentration ([3]; gavage 20 mg/kg, 2.0 h, individual animals): 218 ng/mL and 326 ng/mL and 492 ng/mL
Plasma concentration ([3]; gavage 20 mg/kg, 3.0 h, average): 289 ng/mL
Plasma concentration ([3]; gavage 20 mg/kg, 3.0 h, individual animals): 231 ng/mL and 207 ng/mL and 431 ng/mL
Plasma concentration ([3]; gavage 20 mg/kg, 5.0 h, average): 266 ng/mL
Plasma concentration ([3]; gavage 20 mg/kg, 5.0 h, individual animals): 233 ng/mL and 236 ng/mL and 330 ng/mL
Plasma concentration ([3]; gavage 20 mg/kg, 7.0 h, average): 122 ng/mL
Plasma concentration ([3]; gavage 20 mg/kg, 7.0 h, individual animals): 169 ng/mL and 80.3 ng/mL and 118 ng/mL
Plasma concentration ([3]; gavage 20 mg/kg, 9.0 h, average): 82.2 ng/mL
Plasma concentration ([3]; gavage 20 mg/kg, 9.0 h, individual animals): 91.9 ng/mL and 41.3 ng/mL and 113 ng/mL
Plasma concentration ([3]; gavage 20 mg/kg, 24.0 h, average): 4.28 ng/mL
Plasma concentration ([3]; gavage 20 mg/kg, 24.0 h, individual animals): 9.67 ng/mL and 1.26 ng/mL and 1.90 ng/mL
AUC0-t ([3]; gavage 20 mg/kg, average): 2867 ± 798 ng·h/mL and 2867 ng·h/mL
AUC0-∞ ([3]; gavage 20 mg/kg, average): 2891 ng·h/mL
Cmax ([3]; gavage 20 mg/kg, average): 453 ± 147 ng/mL and 453 ng/mL
MRT ([3]; gavage 20 mg/kg, average): 5.04 h
Tmax ([3]; gavage 20 mg/kg, average): 0.67 ± 0.29 h and 0.67 h
t1/2 ([3]; gavage 20 mg/kg, average): 3.26 ± 0.82 h and 3.26 h
AUC0-t [3, 4]: 3771 ng·h/mL and 2570 ng·h/mL and 2260 ng·h/mL
AUC0-∞ [3, 4]: 3779 ng·h/mL and 2629 ng·h/mL and 2265 ng·h/mL
Cmax [3, 4]: 575 ng/mL and 289 ng/mL and 494 ng/mL
MRT [3, 4]: 4.67 h and 6.45 h and 4.00 h
Tmax [3, 4]: 1.00 h and 0.50 h (2×)
t1/2 [3, 4]: 2.70 h and 4.20 h and 2.89 h
Plasma concentration ([3]; intravenous injection 10 mg/kg, 0.083 h, average): 4194 ng/mL
Plasma concentration ([3]; intravenous injection 10 mg/kg, 0.083 h, individual animals): 4576 ng/mL and 4169 ng/mL and 3837 ng/mL
Plasma concentration ([3]; intravenous injection 10 mg/kg, 0.25 h, average): 2883 ng/mL
Plasma concentration ([3]; intravenous injection 10 mg/kg, 0.25 h, individual animals): 3010 ng/mL and 2766 ng/mL and 2874 ng/mL
Plasma concentration ([3]; intravenous injection 10 mg/kg, 0.5 h, average): 1942 ng/mL
Plasma concentration ([3]; intravenous injection 10 mg/kg, 0.5 h, individual animals): 2055 ng/mL and 1788 ng/mL and 1984 ng/mL
Plasma concentration ([3]; intravenous injection 10 mg/kg, 1.0 h, average): 1207 ng/mL
Plasma concentration ([3]; intravenous injection 10 mg/kg, 1.0 h, individual animals): 1211 ng/mL and 1047 ng/mL and 1365 ng/mL
Plasma concentration ([3]; intravenous injection 10 mg/kg, 2.0 h, average): 571 ng/mL
Plasma concentration ([3]; intravenous injection 10 mg/kg, 2.0 h, individual animals): 590 ng/mL and 527 ng/mL and 596 ng/mL
Plasma concentration ([3]; intravenous injection 10 mg/kg, 3.0 h, average): 255 ng/mL
Plasma concentration ([3]; intravenous injection 10 mg/kg, 3.0 h, individual animals): 228 ng/mL and 294 ng/mL and 243 ng/mL
Plasma concentration ([3]; intravenous injection 10 mg/kg, 5.0 h, average): 75.3 ng/mL
Plasma concentration ([3]; intravenous injection 10 mg/kg, 5.0 h, individual animals): 65.0 ng/mL and 83.7 ng/mL and 77.2 ng/mL
Plasma concentration ([3]; intravenous injection 10 mg/kg, 7.0 h, average): 20.7 ng/mL
Plasma concentration ([3]; intravenous injection 10 mg/kg, 7.0 h, individual animals): 19.2 ng/mL and 21.1 ng/mL and 21.7 ng/mL
Plasma concentration ([3]; intravenous injection 10 mg/kg, 9.0 h, average): 8.00 ng/mL
Plasma concentration ([3]; intravenous injection 10 mg/kg, 9.0 h, individual animals): 7.31 ng/mL and 9.26 ng/mL and 7.41 ng/mL
Plasma concentration ([3]; intravenous injection 10 mg/kg, 24.0 h, average): 1.76 ng/mL
Plasma concentration ([3]; intravenous injection 10 mg/kg, 24.0 h, individual animals): 2.26 ng/mL and 1.61 ng/mL and 1.41 ng/mL
AUC0-t [3, 5]: 4196 ± 141 ng·h/mL and 4196 ng·h/mL
AUC0-∞ [3, 5]: 4210 ng·h/mL
CLz (plasma clearance rate CL) [3, 5]: 39.7 ± 1.3 mL/min/kg and 39.7 mL/min/kg
MRT [3, 5]: 1.47 h
Vss (steady state distribution volume) [3, 5]: 3.49 ± 0.24 L/kg and 3.49 L/kg
t1/2 [3, 5]: 5.44 ± 0.85 h and 5.44 h
AUC0-t [3, 6]: 4262 ng·h/mL and 4292 ng·h/mL and 4034 ng·h/mL
AUC0-∞ [3, 6]: 4272 ng·h/mL and 4313 ng·h/mL and 4046 ng·h/mL
CLz [3, 6]: 39 mL/min/kg and 38.7 mL/min/kg and 41.2 mL/min/kg
MRT [3, 6]: 1.42 h and 1.46 h and 1.53 h
Vss [3, 6]: 3.33 L/kg and 3.38 L/kg and 3.78 L/kg
t1/2 [3, 6]: 4.88 h and 6.42 h and 5.01 h
IC50 [2]: 8.19 nM
Ki [2]: 4.2 nM
affinity on dopamine D1 receptor (in words) [2]: strong affinity

SMILES: COc1c(O)ccc2c1CN1CCc3cc4c(cc3[C@@H]1C2)OCCO4 [DC037082, S-(−)-2,3-bimethylenedioxy-9-methoxyl-10-hydroxy-5,8,13,13a-tetrahydro-6H-dibenzo[a,g]quinolizine]
D2 receptor inhibition ratio (%) [1]: 63.94%
affinity on dopamine D2 receptor (in words) ([1]; summary of the tables): strong affinity
D1 receptor inhibition ratio (%) [2]: 99.32%
IC50 [2]: 14.7 nM
Ki [2]: 7.51 nM
affinity on dopamine D1 receptor (in words) [2]: strong affinity

SMILES: COc1ccc(OC)c2c1C[C@H]1c3cc4c(cc3CCN1C2)OCO4 [DC037013, S-(−)-2,3-methylenedioxy-9,12-bimethoxy-5,8,13,13a-tetrahydro-6H-dibenzo[a,g]quinolizine]
IC50 [2]: 47.9 nM
Ki [2]: 23.6 nM

More lines, now with the values ahead:

D2 receptor inhibition ratio (%) [1]: 51.5%
D1 receptor inhibition ratio (%) [2]: 66.8%
SMILES: COc1ccc2c(c1)CCN1Cc3cc(OC)c(OC)cc3C[C@@H]21 [DC037010, S-(+3,10,11-trimethoxy-5,8,13,13a-tetrahydro-6H-dibenzo[a,g]quinolizine]

D2 receptor inhibition ratio (%) [1]: 65.3%
D1 receptor inhibition ratio (%) [2]: 10.3%
SMILES: COc1cc2c(cc1OC)[C@@H]1Cc3cc(OC)c(OC)c(OC)c3[C@H](C)N1CC2 [DC037019, (8S,14S)-2,3,9,10,11-pentamethoxyl-8-methyl-5,8,13,13a-tetra-hydro-6H-dibenzo[a,g]quinolizine]

D2 receptor inhibition ratio (%) [1]: 49.05%
D1 receptor inhibition ratio (%) [2]: 87.65%
IC50 [2]: 2030 nM
Ki [2]: 1000 nM
SMILES: COc1ccc2c(c1)CCN1Cc3c(cc(OC)c(OC)c3OC)CC21 (racemic) [DC037007, (±)-3,9,10,11-tetramethoxy-5,8,13,13a-tetrahydro-6H-dibenzo[a,g]quinolizine]

D2 receptor inhibition ratio (%) [1]: 48.0%
D1 receptor inhibition ratio (%) [2]: 91.75%
IC50 [2]: 648 nM
Ki [2]: 320 nM
SMILES: COc1cc2c(cc1OC)[C@@H]1Cc3cc(OC)c(OC)c(OC)c3CN1CC2 [DC037006, S-(−)-2,3,9,10,11-pentamethoxyl-5,8,13,13a-tetrahydro-6H-dibenzo[a,g]quinolizine]

D2 receptor inhibition ratio (%) [1]: 14.7%
D1 receptor inhibition ratio (%) [2]: 58.95%
SMILES: COc1cc2c(cc1OC)CN1CCc3cc(OC)c(OC)cc3C1C2 (racemic) [DC037001, (±)-2,3,10,11-tetramethoxy-5,8,13,13a-tetrahydro-6H-dibenzo[a,g]quinolizine]

D2 receptor inhibition ratio (%) [1]: 0.35%
D1 receptor inhibition ratio (%) [2]: −13.6%
SMILES: COc1ccc2c(c1)CCN1Cc3cc(OC)c(OC)cc3CC21 (racemic) [DC037009, (±)-3,10,11-trimethoxy-5,8,13,13a-tetrahydro-6H-dibenzo[a,g]quinolizine]
